Data published in US8431530B2, “Compositions and methods for treating aids or cancer by inhibiting the secretion of microparticles” (priority 2009, dated 2013).

Key:
[1] = tested on: Jurkat cells; test: Cellular toxicity assay, fluorescein diacetate and propidium iodide; assay type: cell-based; settings: peptide alone by Chariot, 48 hours
From the text: FIG. 12 is a composite of pictures showing the result of cellular toxicity assay for cells transfected with SMRwt or SMRmt peptide. Panels A-1 and B-1: Propidium iodide staining of cells transfected with SMRwt and SMRmt peptide, respectively. Panels A-2 and B-2: Fluorescein diacetate staining of cells transfected with SMRwt and SMRmt peptide, respectively. Panels A-3 and B-3: Phase microscope image of cells transfected with SMRwt and SMRmt peptide, respectively.
SMRwt or SMRmut (negative control) peptide alone were transfected into Jurkat cells using Chariot. The transfected cells were allowed to grow for 48 hours. The cells were assayed by Fluorescein diacetate (FD; taken up by live cells and converted to FITC making cells fluoresce green) and propidium iodide (PI; diffuse across porous membranes of dying cells fluoresing red inside those cells) for cytotoxicity.

[2] = tested on: R7 in Jurkat cells; test: Electron microscopy of viral particle distribution; assay type: cell-based, HIV; settings: R7 co-transfection, day 6 versus day 14
From the text: FIG. 4A is a composite of diagrams showing ELISA analysis of p24 concentration in Jurkat cells (panel A), HEK293 cells (panel B), THP-1 Monocytes (panel C) and U937 monocytes (panel D). FIG. 4B is a composite of confocal microscope pictures showing blocking of p24 release in Jurkat cells by SMRwt peptide (panel A) but not by SMRrmt peptide (panel B). FIG. 4C is a composite of confocal and electron microscope pictures showing viral particle distribution in Jurkat cells at day 6 post-transfection with R7 and SMRwt peptide (panel A-1) or with R7 and SMRmt peptide (panel B-1). FIG. 4D is a composite of confocal and electron microscope pictures showing viral particle distribution in Jurkat cells at day 14 post-transfection with R7 and SMRwt peptide (panel A-2) or with R7 and SMRmt peptide (panel B-2), FIG. 4E is a composite of confocal and electron microscope pictures showing viral particle distribution in subcellular structures in Jurkat cells at day 6 post-transfection with R7 and SMRwt peptide (panel A-1) or with R7 and SMRmt peptide (panel B-1) in Jurkat cells and at day 14 post-transfection with R7 and SMRwt peptide (panel A-2) or with R7 and SMRmt peptide (panel B-2) in Jurkat cells.
FIGS. 4C-4E are electron microscopic pictures showing Jurkat cells transfected with R7/SMRwt or […] at day 6 (FIG. 4C) and day 14 (FIG. 4D) post transfection. […]

[3] = tested on: Mortalin/GRP75 and other cellular factors of Jurkat cell lysates; test: FLAG immuno-precipitation pulldown of cellular factors, MS and Western blot; assay type: binding; settings: FLAG IP on Jurkat cell lysates
Description: SMRwt vs. SMRmt peptides were used in conjunction with FLAG immuno-precipitation on Jurkat cell lysates to pulldown cellular factors that interacted with the SMRwt antagonist, but not with the SMRmt negative control. The cellular factor(s) that interact with the antagonist are analyzed by the FLAG IP assay. Briefly, cell lysates are combined with AminoLink Plus resin coupled to FLAG-tagged SMR peptides. SMR-specific cellular proteins (ROY) bind to the SMR peptides on the resin. Non-specific contaminants (G BIV) are washed off of the resin and removed by centrifugation. The SMR-specific cell proteins (ROY) are eluted and collected. Some strongly bound contaminants (V) are also eluted and collected.
Mortalin interacts with p53, and is shown to be involved in apoptosis and vesicle transport (MAC complex). It is also found in microvesicles released by tumor cells.
The gel was also Western probed with α-Mortalin antibody. A protein with a molecular weight of ˜75 kDa was detected in the lanes containing the cell lysate, the antagonist eluate, and the antagonist affinity resin (FIG. 13, panel B, Lanes 1, 3, and 5), but not in the negative control or negative control peptide eluate's lanes (FIG. 13, panel B, Lanes 2 and 4).

[4] = tested on: HIV-1wtNef-GFP vesicle secretion in Jurkat cells; test: Nef-GFP co-transfection secretion assay; assay type: cell-based; settings: 500 ng HIV-1wtNef-GFP + 7.8-500 ng peptide, Chariot
Description: In another experiment, Jurkat cells were co-transfected with 500 ng HIV-1wtNef-GFP and 7.8-500 ng of SMRwt peptide by Chariot. As shown in FIG. 3A the SMRwt peptide inhibits the vesicle secretion in Jurkat cells.

[5] = tested on: R7; Magi/CXCR4 cells; test: Magi assay of viral infectivity, supernatants of THP-1 monocytes; assay type: cell-based, HIV; settings: supernatant from transfected THP-1 monocytes
Description: Magi/CXCR4 cells were exposed to 48 hour conditioned supernatants from Jurkat cells, HEK293 cells, THP-1 monocytes, or U937 monocytes transfected with either R7 viral DNA/SMRwt peptide or R7 viral DNA/SMRmt peptide. These cells were then fixed and stained with X-Gal. […] Cells productively infected with R7 are easily visualized under light microscopy by their blue nuclear staining. Magnification ×20. […] This is indicative of virus in the conditioned supernatant from the R7/negative control peptide treated cells and no virus in conditioned supernatant from the R7/antagonist treated cells.
These Magi cultures were quantitated for blue staining cells. The data was plotted as a function of time post-transfection. […] This is possibly due to antagonism of trafficking of viral component(s) to the cytoplasmic membrane. Ultimately this would shutdown the HIV infection and block progression to AIDS.

H-VGFPVAAVGFPVDYKDDDDK-OH [SMRwt] was tested. Which “dying cells (propidium iodide)” value [1] did it give?
Its value is under 2%.

What about the “cytotoxicity (in words)” value ([1]; FD/PI) of the same substance?
The value was “very little or no cytotoxicity”.

And the “release of virus as measured by EM” value [2]?
The value was “delays release of virus from infected cells”.

What about the “~75 kDa protein in peptide eluate, Western probed with α-Mortalin antibody” value [3] of the same substance?
The value was “detected”.

And the “cellular proteins in bands of the SMRwt lane but not the SMRmt lane (MALDI TOF MS/MS, LC/MS/MS)” value ([3]; SDS PAGE)?
Its value is “Mortalin/GRP75; Myosin 10; Vimentin; GRP78; HSC70”.

And the “vesicle secretion (Nef-GFP)” value [4]?
Its value is “inhibits the vesicle secretion in Jurkat cells in a dose-dependent manner”.

And the “numbers of infected Magi cells as a function of time post-transfection” value [5]?
The value was “significantly reduced”.
